The text below walks through data of US9556179B2 (BRISTOL-MYERS SQUIBB COMPANY, priority 2012, dated 2017).

A word on the IC50: it is the concentration at which inhibition is half-maximal. Read a high IC50 as weaker potency in that assay.

Assay [1] deals with CK1ε (Homo sapiens (Human), UniProt P49674). Nature of the assay: CK1ε kinase assay (Caliper LABCHIP electrophoretic separation of fluoresceinated peptide substrate and product). It is filed as biochemical. To be noted: 200 pM enzyme, 50 μM ATP, 22 hours at room temperature. An outline of the steps: (§1)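 Kinase reactions ran 22 h at room temperature, were stopped with EDTA, and phosphorylated product was separated electrophoretically from unphosphorylated fluoresceinated peptide. Compounds were tested at eleven concentrations from 10 mM DMSO stocks. IC50 by non-linear regression.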
Sequence of CK1ε (P49674 whole entry): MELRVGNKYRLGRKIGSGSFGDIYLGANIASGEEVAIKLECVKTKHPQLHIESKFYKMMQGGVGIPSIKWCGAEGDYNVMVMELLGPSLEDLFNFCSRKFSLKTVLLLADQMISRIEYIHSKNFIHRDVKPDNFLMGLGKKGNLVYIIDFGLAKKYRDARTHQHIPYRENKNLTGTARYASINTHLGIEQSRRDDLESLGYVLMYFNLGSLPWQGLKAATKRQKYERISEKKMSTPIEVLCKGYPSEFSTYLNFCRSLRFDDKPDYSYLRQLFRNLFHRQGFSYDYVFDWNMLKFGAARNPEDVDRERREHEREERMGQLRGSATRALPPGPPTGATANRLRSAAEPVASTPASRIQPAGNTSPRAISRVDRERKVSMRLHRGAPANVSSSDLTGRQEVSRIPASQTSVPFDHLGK

Assay [2] concerns the target CK1δ (Homo sapiens (Human), UniProt P48730). Put plainly: CK1δ kinase assay (Caliper LABCHIP electrophoretic separation of fluoresceinated peptide substrate and product). In kind it is biochemical. To be noted: 200 pM enzyme, 50 μM ATP, 22 hours at room temperature. An outline of the steps:
as §1

Sequence of CK1δ (P48730 whole entry): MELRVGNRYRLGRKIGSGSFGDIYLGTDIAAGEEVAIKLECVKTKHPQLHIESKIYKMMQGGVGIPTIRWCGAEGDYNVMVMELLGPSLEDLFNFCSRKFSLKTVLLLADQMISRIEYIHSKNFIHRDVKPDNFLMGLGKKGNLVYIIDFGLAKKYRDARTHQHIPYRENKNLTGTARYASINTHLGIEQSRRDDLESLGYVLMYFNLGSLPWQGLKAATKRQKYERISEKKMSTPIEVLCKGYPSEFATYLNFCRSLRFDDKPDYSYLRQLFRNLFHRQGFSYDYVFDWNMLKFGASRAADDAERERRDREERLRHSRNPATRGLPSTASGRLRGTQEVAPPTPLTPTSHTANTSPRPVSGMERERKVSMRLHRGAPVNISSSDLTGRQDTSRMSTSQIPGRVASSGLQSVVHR

For the molecule `Cc1nc(-c2ccc(F)cc2)c(-c2ccc3nc(NC(=O)c4cccn4C)cn3n2)n1C` [Compound 357, N-(6-(4-(4-fluorophenyl)-1,2-dimethyl-1H-imidazol-5-yl)imidazo[1,2-b]pyridazin-2-yl)-1-methyl-1H-pyrrole-2-carboxamide], the IC50 in assay [1] came to 17.6 nM; in assay [2], 1.49 nM.

Regarding `Cc1nc(-c2ccc(F)cc2)c(-c2ccc3nc(NC(=O)c4ccc(O)nc4)cn3n2)n1C` [Compound 322, N-(6-(4-(4-fluorophenyl)-1,2-dimethyl-1H-imidazol-5-yl)imidazo[1,2-b]pyridazin-2-yl)-6-hydroxynicotinamide], the half-inhibitory concentration (IC50) in assay [1] is 4.76 nM; in assay [2], 0.473 nM.

`O=C(Nc1cn2nc(-c3c(-c4ccc(F)cc4)nc4ccccn34)ccc2n1)c1cnc2ccccc2n1` [Compound 175, N-(6-(2-(4-fluorophenyl)imidazo[1,2-a]pyridin-3-yl)imidazo[1,2-b]pyridazin-2-yl)-2-quinoxalinecarboxamide]: the results for the IC50 in assay [1] and in assay [2] were 19.3 nM and 3.93 nM, respectively.

`CC(C)(C)C(=O)Nc1cc(C(=O)Nc2cn3nc(-c4c(-c5ccc(F)cc5)nc5ccccn45)ccc3n2)ccn1` [Compound 192, N-(6-(2-(4-fluorophenyl)imidazo[1,2-a]pyridin-3-yl)imidazo[1,2-b]pyridazin-2-yl)-2-pivalamidoisonicotinamide]: the IC50 in assay [1] was 1.06 nM; in assay [2], 0.096 nM.

As for `Cc1nc(-c2ccc(F)cc2)c(-c2ccc3nc(NC(=O)c4ccnc(F)c4)cn3n2)n1C1CCN(CCCF)CC1` [Compound 140, 2-fluoro-N-(6-(4-(4-fluorophenyl)-1-(1-(3-fluoropropyl)piperidin-4-yl)-2-methyl-1H-imidazol-5-yl)imidazo[1,2-b]pyridazin-2-yl)isonicotinamide], the IC50 in assay [1] is 22.2 nM; in assay [2], 2.29 nM.

As to `Cc1nccn1CCCn1cnc(-c2ccc(F)cc2)c1-c1ccc2nc(NC(=O)c3ccnc(F)c3)cn2n1` [Compound 271, 2-fluoro-N-(6-(4-(4-fluorophenyl)-1-(3-(2-methyl-1H-imidazol-1-yl)propyl)-1H-imidazol-5-yl)imidazo[1,2-b]pyridazin-2-yl) isonicotinamide], the IC50 in assay [1] amounted to 5.97 nM; in assay [2], 0.897 nM.

`Cc1nc(-c2ccc(F)cc2)c(-c2ccc3nc(NC(=O)[C@@H]4CC(F)(F)CN4)cn3n2)n1C` [Compound 316, (S)-4,4-difluoro-N-(6-(4-(4-fluorophenyl)-1,2-dimethyl-1H-imidazol-5-yl)imidazo[1,2-b]pyridazin-2-yl)pyrrolidine-2-carboxamide]: the IC50 in assay [1] came out at 39.4 nM; in assay [2], 3.09 nM.

In the case of `COC(=O)N1CCC(n2cnc(-c3ccc(F)cc3)c2-c2ccc3nc(NC(=O)c4ccnc(F)c4)cn3n2)CC1` [Compound 84, methyl 4-(5-(2-(2-fluoroisonicotinamido)imidazo[1,2-b]pyridazin-6-yl)-4-(4-fluorophenyl)-1H-imidazol-1-yl)piperidine-1-carboxylate], the results for the half-maximal inhibitory concentration (IC50) in assay [1] and in assay [2] were 0.967 nM and 0.179 nM, respectively.

Turning to `CN(C)c1cc(C(=O)Nc2cn3nc(-c4c(-c5ccc(F)cc5)nc5ccccn45)ccc3n2)ccn1` [Compound 193, 2-(dimethylamino)-N-(6-(2-(4-fluorophenyl)imidazo[1,2-a]pyridin-3-yl)imidazo[1,2-b]pyridazin-2-yl) isonicotinamide], the half-inhibitory concentration (IC50) in assay [1] was 1.28 nM; in assay [2], 0.111 nM.

Regarding `CC(=O)N1CCn2c(nc(-c3ccc(F)cc3)c2-c2ccc3nc(NC(=O)c4ccnc(F)c4)cn3n2)C1` [Compound 460, N-(6-(7-Acetyl-2-(4-fluorophenyl)-5,6,7,8-tetrahydroimidazo[1,2-a]pyrazin-3-yl)imidazo[1,2-b]pyridazin-2-yl)-2-fluoroisonicotinamide], the IC50 in assay [1] is 3.7 nM; in assay [2], 0.6 nM.

With `O=C(Nc1cn2nc(-c3c(-c4ccc(F)cc4)ncn3C3CCN(C(=O)c4ccncc4)CC3)ccc2n1)c1ccnc(F)c1` [Compound 56, 2-fluoro-N-(6-(4-(4-fluorophenyl)-1-(1 isonicotinoylpiperidin-4-yl)-1H-imidazol-5-yl)imidazo[1,2-b]pyridazin-2-yl)isonicotinamide], the IC50 in assay [1] came to 0.297 nM; in assay [2] it was 0.13 nM.

On to `O=C(Nc1cn2nc(-c3c(-c4ccc(F)cc4)ncn3C3CCCCC3)ccc2n1)c1ccnc(F)c1` [Compound 257, N-(6-(1-cyclohexyl-4-(4-fluoro-phenyl)-1H-imidazol-5-yl)imidazo[1,2-b]pyridazin-2-yl)-2-fluoroisonicotinamide], for which the IC50 in assay [1] was determined as 2.29 nM; in assay [2], 0.325 nM.

For the molecule `Cc1nc(-c2ccc(F)cc2)c(-c2ccc3nc(NC(=O)c4cc5c(F)cccc5[nH]4)cn3n2)n1C` [Compound 341, 4-fluoro-N-(6-(4-(4-fluoro-phenyl)-1,2-dimethyl-1H-imidazol-5-yl)imidazo[1,2-b]pyridazin-2-yl)-1H-indole-2-carboxamide], the results for the IC50 in assay [1] and in assay [2] were 8.85 nM and 1.32 nM, respectively.

As for `Cc1nc(-c2ccc(F)cc2)c(-c2ccc3nc(NC(=O)C4CCC(=O)N4)cn3n2)n1C` (centres unmarked) [Compound 366, N-(6-(4-(4-fluorophenyl)-1,2-dimethyl-1H-imidazol-5-yl)imidazo[1,2-b]pyridazin-2-yl)-5-oxoprolinamide], the half-maximal inhibitory concentration (IC50) in assay [1] turned out to be 25.1 nM; in assay [2] it was 1.72 nM.

As for `O=C(Nc1cn2nc(-c3c(-c4ccc(F)cc4)ncn3CC(=O)N3CCCC3)ccc2n1)c1ccnc(F)c1` [Compound 250, 2-fluoro-N-(6-(4-(4-fluorophenyl)-1-(2-oxo-2-(1-pyrrolidinyl)ethyl)-1H-imidazol-5-yl)imidazo[1,2-b]pyridazin-2-yl)isonicotinamide], the IC50 stood at 8.38 nM in assay [1] and 0.292 nM in assay [2].

On to `Cc1n[nH]cc1C(=O)Nc1cn2nc(-c3c(-c4ccc(F)cc4)nc(C)n3C)ccc2n1` [Compound 377, N-(6-(4-(4-fluorophenyl)-1,2-dimethyl-1H-imidazol-5-yl)imidazo[1,2-b]pyridazin-2-yl)-3-methyl-1H-pyrazole-4-carboxamide], for which the IC50 in assay [1] stood at 4.04 nM; in assay [2], 0.656 nM.

`O=C(Nc1cn2nc(-c3c(-c4ccc(F)cc4)nc4n3CCCC4)ccc2n1)c1ccnc(N2CCOCC2)c1` [Compound 443, N-(6-(2-(4-Fluorophenyl)-5,6,7,8-tetrahydroimidazo[1,2-a]pyridin-3-yl)imidazo[1,2-b]pyridazin-2-yl)-2-morpholinoisonicotinamide]: the IC50 was found to be 2.7 nM in assay [1] and 0.4 nM in assay [2].

Consider `Cc1nocc1C(=O)Nc1cn2nc(-c3c(-c4ccc(F)cc4)nc4ccccn34)ccc2n1` [Compound 209, N-(6-(2-(4-fluorophenyl)imidazo[1,2-a]pyridin-3-yl)imidazo[1,2-b]pyridazin-2-yl)-3-methylisoxazole-4-carboxamide], for which the IC50 in assay [1] worked out at 29.5 nM; in assay [2], 1.83 nM.

Regarding `COC(=O)N1CCn2c(nc(-c3ccc(F)cc3)c2-c2ccc3nc(NC(=O)c4ccnc(F)c4)cn3n2)C1` [Compound 474, Methyl 3-(2-(2-fluoroisonicotinamido)imidazo[1,2-b]pyridazin-6-yl)-2-(4-fluorophenyl)-5,6-dihydroimidazo[1,2-a]pyrazine-7(8H)-carboxylate], the IC50 in assay [1] came to 9.3 nM; in assay [2], 1 nM.

Turning to `O=C(Nc1cn2nc(-c3c(-c4ccc(F)cc4)ncn3C3CCN(C(=O)CCC(F)(F)F)CC3)ccc2n1)c1ccnc(F)c1` [Compound 59, 2-fluoro-N-(6-(4-(4-fluorophenyl)-1-(1-(4,4,4-trifluorobutanoyl)piperidin-4-yl)-1H-imidazol-5-yl)imidazo[1,2-b]pyridazin-2-yl)isonicotinamide], the IC50 was 1.97 nM in assay [1] and 0.579 nM in assay [2].

Take `Cc1cc(C)c(-c2cccnc2)cc1C(=O)Nc1cn2nc(-c3c(-c4ccc(F)cc4)nc(C)n3C)ccc2n1` [Compound 402, N-(6-(4-(4-Fluorophenyl)-1,2-dimethyl-1H-imidazol-5-yl)imidazo[1,2-b]pyridazin-2-yl)-2,4-dimethyl-5-(pyridin-3-yl)benzamide]: the values for the IC50 in assay [1] and in assay [2] were 7.47 nM and 0.463 nM, respectively.

On to `Cc1nc(-c2ccc(F)cc2)c(-c2ccc3nc(NC(=O)c4ccn(C)n4)cn3n2)n1C` [Compound 354, N-(6-(4-(4-fluorophenyl)-1,2-dimethyl-1H-imidazol-5-yl)imidazo[1,2-b]pyridazin-2-yl)-1-methyl-1H-pyrazole-3-carboxamide], for which the IC50 is 10.6 nM in assay [1] and 1.42 nM in assay [2].

As to `O=C(Nc1cn2nc(-c3c(-c4ccc(F)cc4)ncn3C3CCN(CCC(F)(F)F)CC3)ccc2n1)c1cncs1` [Compound 115, N-(6-(4-(4-fluorophenyl)-1-(1-(3,3,3-trifluoropropyl)piperidin-4-yl)-1H-imidazol-5-yl)imidazo[1,2-b]pyridazin-2-yl)thiazole-5-carboxamide], the IC50 in assay [1] worked out at 3.88 nM; in assay [2], 0.159 nM.

In the case of `O=C(Nc1cn2nc(-c3c(-c4ccc(F)cc4)ncn3C3CCN(C(=O)OCc4ccon4)CC3)ccc2n1)c1ccnc(F)c1` [Compound 86, isoxazol-3-ylmethyl 4-(5-(2-(2-fluoroisonicotinamido)imidazo[1,2-b]pyridazin-6-yl)-4-(4-fluorophenyl)-1H-imidazol-1-yl)piperidine-1-carboxylate], the half-inhibitory concentration (IC50) is 0.851 nM in assay [1] and 0.286 nM in assay [2].

Consider `Cc1nc(-c2ccc(F)cc2)c(-c2ccc3nc(NC(=O)c4cc5cnccc5[nH]4)cn3n2)n1C` [Compound 327, N-(6-(4-(4-fluorophenyl)-1,2-dimethyl-1H-imidazol-5-yl)imidazo[1,2-b]pyridazin-2-yl)-1H-pyrrolo[3,2-c] pyridine-2-carboxamide], for which the IC50 stood at 6.08 nM in assay [1] and 0.676 nM in assay [2].
